Legend:
[1] = test system: PANC-1 cells; assay: 72 h MTT cytotoxicity, PANC-1; type: cell-based, human
Experimental: (§1) Cytotoxicity. Tumor cells were cultured overnight after inoculation in RPMI-1640 medium or DMEM supplemented with 10% FBS. All cultures were maintained in an incubator in a highly humidified atmosphere of 95% air with 5% CO2 at 37 °C. Growth inhibition was measured with an MTT assay. Briefly, 2800–7000 cells per well in culture medium (100 μL) were plated in 96-well plates (Corning). The cells were treated in triplicate with different concentrations of complexes at 37 ℃ for 72 h. Stock solutions of CDDP and oxoplatin were prepared in PBS, while stock solutions of conjugates I and II and the ligand MSA-2 were prepared in DMSO. The stock solutions were diluted in complete medium (DMSO < 0.5%). An aliquot of MTT solution (40 μL, 2.5 mg·mL^–1) in PBS buffer was added to each well and incubated for 4 h. The supernatant was removed and DMSO (150 μL) was added to solubilize the formazan crystals. The amount of formazan was determined using a microplate reader at 570 nm after the plates were shaken for 30 min. The optical density (OD) was used to calculate the percentage of viable cells relative to untreated control values. Background readings for MTT incubated in cell-free medium were subtracted from each value before calculation. […] The mean IC50 values were calculated using data from three replicates.

[2] = test system: PANC-1 cells; assay: cellular uptake of Pt by ICP-MS, PANC-1; type: cell-based, human
Experimental: Cellular uptake. All incubations were carried out in the dark. After the designated incubation period, the medium was removed, and the cells were harvested with trypsin and rinsed twice with PBS (1×, 20 mM, pH 7.4), followed by digestion and ICP-MS.
Cancer cells were seeded in a 6-well plate at a density of 5×10^5 cells per well. After incubation for 24 h, the cells were treated with each complex for 6 h.
Cancer cells preincubated with metabolic inhibitor (MIs) were also evaluated. These cells were preincubated with 2-deoxy-D-glucose and oligomycin (50 mM and 5 μM, respectively, 1 h) or NH4Cl (50 mM, 1 h) at 37 ℃ followed by incubation with DMEM containing CDDP, I or II at 37 ℃ for 6 h.
Digestion. Cell pellets were collected by centrifugation and then digested with nitric acid (100 µL) for 2 h at 95 °C, followed by the addition of H2O2 (50 µL) at 95 °C for 0.5 h. HCl (100 µL) was added and kept at 95 °C until the total volume was less than 20 μL. Water was then added to dilute the solution to 1 mL, and the final Pt content was determined by ICP-MS.

[3] = test system: HK-2 cells; assay: 72 h MTT cytotoxicity, HK-2; type: cell-based; details: human normal kidney cell line
Experimental: as §1

[4] = test system: BxPC3 cells; assay: 72 h MTT cytotoxicity, BxPC3; type: cell-based, human
Experimental: as §1

[5] = test system: Pan02 cells; assay: 72 h MTT cytotoxicity, Pan02; type: cell-based, mouse
Experimental: as §1

[6] = test system: Pan02 cells; assay: Pan02 cell viability with cell death inhibitors / at matched Pt uptake; type: cell-based; details: Pan02, I 0.2 μM; necrostatin-1 50 μM, ferrostatin 50 μM
Experimental: For Pan02 cells, the cell viability in the presence of different cell death inhibitors was also determined. Therefore, Pan02 cells were respectively pre-incubated with z-VAD-fmk (50 μM), 3-Methyladenine (100 μM), ferrostatin (50 μM), necrostatin-1 (50 μM) 1 h, and then co-incubated I (0.2 μM) for 72 h. The cell viability was then determined.
Fig. S17. (A) The chemical structure of Pt-E-I. (B) Cellular uptake of Pt (ng Pt/mg protein) in Pan02 cells after exposure to Pt-E-I (5 μM) for 6 h. NH4Cl: cells preincubated with 50 mM NH4Cl; MI: cells preincubated with 50 mM 2-deoxy-D-glucose and 5 μΜ oligomycin. (C) Cellular uptake of Pt (ng Pt/mg protein) in Pan02 cells after exposure to I and Pt-E-I (1, 2, 5, 10, 20 μM) for 6 h. (D) The cell viability of Pan02 treated with I (5 μM) and Pt-E-I (20 μM). (E) Hierarchical clustering of differentially expressed genes between I-treated (5 μM) Pan02 cells, Pt-E-I-treated (20 μM) and nontreated cells.

[7] = test system: nuclear DNA of PANC-1 cells; assay: platination of cellular DNA by ICP-MS; type: cell-based, human; details: 6 h
Experimental: DNA platination. Cancer cells were seeded in 6-well plates at a density of 5×10^5 cells per well. After incubation at 37 °C for 24 h, the cells were treated with each complex for 6 h. The attached cells were harvested with trypsin and washed twice with PBS (4 °C). The cell pellets were lysed with the TIANamp Genomic DNA Kit. The DNA concentration was determined using NanoDrop spectrophotometer, and then the isolated DNA was digested with the same method mentioned above. The final Pt content was determined by ICP-MS.

[8] = test system: STING pathway in BMDCs; assay: IFN-β and IL-6 ELISA in supernatants of BMDCs treated with complexes; type: cell-based, mouse
Experimental: ELISA. Bone marrow-derived dendritic cells (BMDCs) were prepared according to the following method. Briefly, femurs and tibias were removed from 4-6 week-old C57BL/6 mice, and the bone marrow cells were isolated. The bone marrow cells were incubated in T cell medium [RPMI-1640 medium (with GlutaMAX), supplemented with 10% FBS, 1% HEPES, 1% NEAA, 1% sodium pyruvate, and 0.1% βME] containing 20 ng/mL GM-CSF for 6 days after erythrocyte lysis, during which time half of the medium was replaced with fresh T cell medium once and the cytokines were supplemented. Then, the BMDCs were harvested on day 7 for further study.
BMDCs were cultured with 50% CM plus 50% fresh medium for 18 h. In addition, BMDCs were cultured with fresh medium containing different complexes or mixtures (15 μM CDDP and I, a mixture of I and 8 equiv. AsA, and equal AsA). Then, all the BMDC supernatant was collected and centrifuged for subsequent cytokine analysis using ELISA kits, which were performed according to the manufacturer’s instructions.

[9] = test system: Pan02 tumor tissue immune cells; assay: flow cytometric analysis of immune cells in Pan02 tumor tissue; type: in vivo, mouse; details: Pan02 tumors; comparable to CDDP and CDDP + MSA-2 groups
Experimental: Flow cytometric analysis. To analyze the levels of immune cells in the tumor microenvironment, mice were sacrificed six days after the final treatment. The obtained tumors were cut into pieces and digested in T cell medium. Single-cell suspensions were obtained after filtration through nylon mesh and incubated with various antibodies. FACS tests were carried out on a flow cytometer, and the results were analyzed with NovaExpress. The following monoclonal antibodies (mAbs) were used for flow cytometry: anti-CD3-APC (17A2), anti-CD4-AF700 (RM4-5), anti-CD8-PE (53-6.7), anti-NK1.1-PE/Cy7 (PK136), anti-PD-1-FITC (29F. 1A12), anti-CD69-PE/Cy5 (H1.2F3).

[10] = pretreated with 8 equiv. AsA for 24 h, compared with no pretreatment

## COc1cc2cc(C(=O)CCC(=O)[O][Pt]([NH2])([NH2])([OH])([Cl])[Cl])sc2cc1OC [conjugate I]
[1]
  IC50: 60 ± 20 nM
[2]; PANC-1, 5 μM, 6 h, 50 mM 2-deoxy-D-glucose and 5 μM oligomycin, versus no MI pretreatment
  cellular Pt levels after preincubation with metabolic inhibitors (MIs): significantly decreased
[2]; PANC-1, 5 μM, 6 h, 50 mM NH4Cl
  intracellular Pt levels after pretreatment with endocytosis inhibitor NH4Cl: did not significantly change
[2]; PANC-1 cells, 6 h
  fold increase of cellular Pt compared with CDDP: 92 fold
  fold increase of cellular Pt compared with conjugate II: 68 fold
[2]; PANC-1 cells, 6 h incubation, ICP-MS
  cellular Pt content: 155.7 ng Pt/mg protein
[3]
  IC50: 120 ± 10 nM
[4]
  IC50: 20 ± 10 nM
[5]
  IC50: 50 ± 10 nM
[6]
  cell killing on co-incubation with necroptosis and ferroptosis inhibitors: significant reversal of cell killing
[7]
  platination of cellular DNA: stronger than that by CDDP or conjugate II
[8]; 18 h, ELISA, 15 μM
  IFN-β secretion by BMDCs: minimal
  IL-6 secretion by BMDCs: minimal
[8]; [10]
  IFN-β secretion by BMDCs, compound pretreated with AsA: significantly enhanced
  IL-6 secretion by BMDCs, compound pretreated with AsA: significantly enhanced
[9]
  infiltration of CD8+ and CD4+ T cells: slightly increased
